Data: US11878975B2, “Substituted indole compounds useful as TLR inhibitors” (BRISTOL-MYERS SQUIBB COMPANY, priority 2017, dated 2024)

How the values were obtained:
Type in all cases: cell-based
[1] = molecular target: T1, human TLR8 (Homo sapiens, UniProt Q9NR97); test: TLR8 inhibition reporter assay (HEK-Blue cells, SEAP reporter, R848 stimulation); conditions: HEK-Blue cells overexpressing human TLR8, SEAP reporter, R848 15.9 μM
T1 construct: host or cells: HEK-Blue cells
T1 sequence (Q9NR97 27-1041): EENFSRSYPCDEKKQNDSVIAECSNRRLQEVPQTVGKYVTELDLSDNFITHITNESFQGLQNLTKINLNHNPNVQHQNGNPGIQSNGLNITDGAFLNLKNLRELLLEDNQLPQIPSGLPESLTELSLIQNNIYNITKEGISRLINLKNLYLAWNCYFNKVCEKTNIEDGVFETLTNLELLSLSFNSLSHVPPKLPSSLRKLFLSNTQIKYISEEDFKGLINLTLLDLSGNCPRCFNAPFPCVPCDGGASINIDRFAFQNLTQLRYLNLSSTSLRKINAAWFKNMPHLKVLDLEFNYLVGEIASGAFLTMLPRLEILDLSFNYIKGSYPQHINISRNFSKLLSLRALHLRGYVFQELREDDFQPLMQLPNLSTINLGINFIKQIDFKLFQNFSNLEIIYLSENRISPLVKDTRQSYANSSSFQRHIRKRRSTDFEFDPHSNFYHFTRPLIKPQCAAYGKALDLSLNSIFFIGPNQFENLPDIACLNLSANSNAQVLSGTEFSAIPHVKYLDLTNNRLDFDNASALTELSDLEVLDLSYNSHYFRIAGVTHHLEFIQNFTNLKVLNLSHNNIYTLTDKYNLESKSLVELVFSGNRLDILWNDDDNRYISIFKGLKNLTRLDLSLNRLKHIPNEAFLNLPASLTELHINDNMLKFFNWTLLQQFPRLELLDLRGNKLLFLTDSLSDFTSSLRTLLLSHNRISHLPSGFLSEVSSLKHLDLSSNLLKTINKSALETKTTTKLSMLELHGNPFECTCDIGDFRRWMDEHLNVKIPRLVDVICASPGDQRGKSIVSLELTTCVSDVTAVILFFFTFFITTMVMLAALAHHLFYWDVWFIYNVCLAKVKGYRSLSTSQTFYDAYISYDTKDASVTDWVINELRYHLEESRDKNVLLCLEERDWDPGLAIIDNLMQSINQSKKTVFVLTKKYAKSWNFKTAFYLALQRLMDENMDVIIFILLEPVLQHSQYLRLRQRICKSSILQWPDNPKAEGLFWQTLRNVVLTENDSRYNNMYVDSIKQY
Summary of the method: (§1)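 Dose range 0.05 nM–50 μM; 30 min preincubation, RT. Agonists: TLR7 gardiquimod 7.5 μM, TLR8 R848 15.9 μM, TLR9 ODN2006 5 nM. 22 h, 37 °C, 5% CO2. SEAP (IFN-β minimal promoter with NF-κB/AP-1 sites) via colorimetric detection medium; % inhibition vs agonist+DMSO and reference-inhibitor wells.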

[2] = molecular target: T2, human TLR7 (Homo sapiens, UniProt Q9NYK1); test: TLR7 inhibition reporter assay (HEK-Blue cells, SEAP reporter, gardiquimod stimulation); conditions: HEK-Blue cells overexpressing human TLR7, SEAP reporter, gardiquimod 7.5 μM
T2 construct: host or cells: HEK-Blue cells
T2 sequence (Q9NYK1 27-1049): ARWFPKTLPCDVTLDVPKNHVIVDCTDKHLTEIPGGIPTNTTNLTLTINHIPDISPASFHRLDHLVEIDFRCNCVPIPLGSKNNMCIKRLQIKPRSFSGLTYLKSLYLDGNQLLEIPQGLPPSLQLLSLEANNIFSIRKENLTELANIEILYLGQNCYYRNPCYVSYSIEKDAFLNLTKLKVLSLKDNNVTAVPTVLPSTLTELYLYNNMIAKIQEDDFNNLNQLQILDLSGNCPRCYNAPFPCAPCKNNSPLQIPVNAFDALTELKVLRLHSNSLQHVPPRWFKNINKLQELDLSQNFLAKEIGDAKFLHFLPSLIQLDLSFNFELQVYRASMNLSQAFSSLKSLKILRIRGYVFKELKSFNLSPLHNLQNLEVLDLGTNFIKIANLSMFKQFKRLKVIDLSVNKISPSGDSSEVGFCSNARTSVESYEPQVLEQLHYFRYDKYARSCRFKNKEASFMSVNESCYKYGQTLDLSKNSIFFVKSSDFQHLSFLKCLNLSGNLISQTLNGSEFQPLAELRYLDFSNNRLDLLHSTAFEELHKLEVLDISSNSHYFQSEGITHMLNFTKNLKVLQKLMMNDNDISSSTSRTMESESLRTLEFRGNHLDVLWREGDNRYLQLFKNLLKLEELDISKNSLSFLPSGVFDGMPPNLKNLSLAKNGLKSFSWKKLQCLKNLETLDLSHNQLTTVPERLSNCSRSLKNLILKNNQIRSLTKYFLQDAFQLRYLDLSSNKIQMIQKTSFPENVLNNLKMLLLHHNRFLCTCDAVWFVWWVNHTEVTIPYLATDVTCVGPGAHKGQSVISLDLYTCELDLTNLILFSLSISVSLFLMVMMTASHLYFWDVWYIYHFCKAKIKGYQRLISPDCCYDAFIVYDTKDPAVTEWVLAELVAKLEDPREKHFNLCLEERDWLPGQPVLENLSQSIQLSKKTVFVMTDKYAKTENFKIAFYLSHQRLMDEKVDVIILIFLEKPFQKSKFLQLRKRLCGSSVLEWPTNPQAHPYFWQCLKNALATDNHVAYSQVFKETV
Summary of the method: as §1

[3] = molecular target: T3, human TLR9 (Homo sapiens, UniProt Q9NR96); test: TLR9 inhibition reporter assay (HEK-Blue cells, SEAP reporter, ODN2006 stimulation); conditions: HEK-Blue cells overexpressing human TLR9, SEAP reporter, ODN2006 5 nM
T3 construct: host or cells: HEK-Blue cells
T3 sequence (Q9NR96 26-1032): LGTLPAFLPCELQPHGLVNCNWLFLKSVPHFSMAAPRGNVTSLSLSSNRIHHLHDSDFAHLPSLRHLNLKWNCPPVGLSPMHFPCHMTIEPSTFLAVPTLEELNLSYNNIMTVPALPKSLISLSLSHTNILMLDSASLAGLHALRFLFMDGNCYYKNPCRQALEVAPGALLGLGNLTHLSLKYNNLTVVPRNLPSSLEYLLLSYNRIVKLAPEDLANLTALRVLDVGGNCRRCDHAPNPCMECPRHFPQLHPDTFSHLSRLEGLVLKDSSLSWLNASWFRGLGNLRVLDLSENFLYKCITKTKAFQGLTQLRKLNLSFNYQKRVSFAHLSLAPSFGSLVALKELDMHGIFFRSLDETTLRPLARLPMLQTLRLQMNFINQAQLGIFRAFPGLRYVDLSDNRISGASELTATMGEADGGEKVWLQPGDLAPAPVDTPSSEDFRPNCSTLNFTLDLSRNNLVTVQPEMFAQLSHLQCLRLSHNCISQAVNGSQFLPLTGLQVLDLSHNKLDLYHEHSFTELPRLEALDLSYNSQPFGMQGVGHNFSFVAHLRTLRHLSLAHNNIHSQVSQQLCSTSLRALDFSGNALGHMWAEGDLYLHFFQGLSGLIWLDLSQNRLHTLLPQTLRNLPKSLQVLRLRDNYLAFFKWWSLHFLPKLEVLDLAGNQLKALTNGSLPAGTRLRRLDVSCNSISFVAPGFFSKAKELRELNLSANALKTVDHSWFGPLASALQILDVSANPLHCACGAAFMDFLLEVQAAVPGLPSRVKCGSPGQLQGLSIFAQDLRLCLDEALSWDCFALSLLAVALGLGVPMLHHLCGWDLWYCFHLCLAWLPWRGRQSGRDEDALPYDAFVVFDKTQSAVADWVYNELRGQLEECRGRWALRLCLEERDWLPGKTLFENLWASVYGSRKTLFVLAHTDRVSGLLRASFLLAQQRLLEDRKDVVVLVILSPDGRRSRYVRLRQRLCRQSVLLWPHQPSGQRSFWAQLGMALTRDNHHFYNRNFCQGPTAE
Summary of the method: as §1

Work on `Cc1c(-c2[nH]c3ccc(C4CCC(N5CC6(COC6)C5)CC4)cc3c2C(C)C)cn2ncnc2c1C` (stereo not drawn) [Example 95] yielded an IC50 [1] of 3.6 nM, an IC50 [2] of 2 nM and an IC50 [3] of 1820 nM.

For `Cc1cc(-c2[nH]c3ccc(C4CCNC4)cc3c2C(C)C)cc(C)n1` (stereo not drawn) [Example 590], the IC50 [1] was 0.5 nM, the IC50 [2] was 5 nM and the IC50 [3] was 930 nM.

In the case of `Cc1cc(-c2[nH]c3ccc(C4CN(C(=O)CN(C)C)C(C)(C)CO4)cc3c2C(C)C)cn2ncnc12` (single isomer, unassigned) [Example 372, 2-(dimethylamino)-1-(2-(3-isopropyl-2-(8-methyl-[1,2,4]triazolo[1,5-a]pyridin-6-yl)-1H-indol-5-yl)-5,5-dimethylmorpholino)ethanone], the IC50 [1] is reported as 11 nM, the IC50 [2] is reported as 8 nM and the IC50 [3] is reported as 26700 nM.

In the case of `Cc1c(-c2[nH]c3ccc(C4CCC(N5CCOCC5)CC4)cc3c2C(C)C)cn2ncnc2c1C` (single isomer, unassigned) [Example 92], the IC50 [1] is reported as 0.33 nM, the IC50 [2] is reported as 0.39 nM and the IC50 [3] is reported as 2680 nM.

`Cc1c(-c2[nH]c3ccc(C4CC(N)C4)cc3c2C(C)C)cn2ncnc2c1C` (stereo not drawn) [Example 542] was tested, and the IC50 [1] was 1.2 nM, the IC50 [2] was 3 nM and the IC50 [3] was 5100 nM.

`CCc1c(-c2ccnc(C)c2)[nH]c2ccc(CNC(=O)C3CCN(C)CC3)cc12` [Example 446] was tested, and the IC50 [1] was 70 nM, the IC50 [2] was 541 nM and the IC50 [3] was 406 nM.

Compound `Cc1c(-c2[nH]c3ccc(C4CC5CN(C(=O)CN(C)C)CC5C4)cc3c2C(C)C)cn2cnnc2c1C` (stereo not drawn) [Example 521] has an IC50 [1] of 37 nM, an IC50 [2] of 4 nM and an IC50 [3] of 7020 nM.

With `Cc1c(-c2[nH]c3ccc(C4CC(N(C)C)C4)cc3c2C(C)C)cn2ncnc2c1C` (stereo not drawn) [Example 574] the IC50 [1] was 0.58 nM, the IC50 [2] was 1 nM and the IC50 [3] was 4250 nM.

For `Cc1cc(-c2[nH]c3ccc([C@H]4C[C@H]4C(=O)N4CC5CNCC5C4)cc3c2C(C)C)ccn1` (stereo partly drawn) [Example 455], the IC50 [1] was 16 nM, the IC50 [2] was 188 nM and the IC50 [3] was 326 nM.

`COc1cc(-c2[nH]c3ccc(C4CCC(NC5CC5)CC4)cc3c2C(C)C)cn2ncnc12` (stereo not drawn) [Example 11] gave an IC50 [1] of 3.7 nM, an IC50 [2] of 2 nM and an IC50 [3] of 2070 nM.

`CNC(=O)CNC1CCC(c2ccc3[nH]c(-c4cc(C)nc(C)c4)c(C(C)C)c3c2)CC1` (single isomer, unassigned) [Example 179, 2-((4-(2-(2,6-dimethylpyridin-4-yl)-3-isopropyl-1H-indol-5-yl)cyclohexyl)amino)-N-methylacetamide] gave an IC50 [1] of 3.5 nM, an IC50 [2] of 2 nM and an IC50 [3] of 767 nM.

For `COc1cc(-c2[nH]c3ccc(C4CCC(NC(=O)CNCC(C)(C)O)CC4)cc3c2C(C)C)cn2ncnc12` (stereo not drawn) [Example 140], the IC50 [1] was 5.6 nM, the IC50 [2] was 0.7 nM and the IC50 [3] was 14200 nM.

Work on `Cc1cc(-c2[nH]c3ccc(C4CCC(N5CCOCC5)CC4)cc3c2C(C)C)cn2ncnc12` (stereo not drawn) [Example 103] yielded an IC50 [1] of 7.4 nM, an IC50 [2] of 2 nM and an IC50 [3] of 4120 nM.

With `Cc1c(-c2[nH]c3ccc(C4CCC(NC5(C)COC5)CC4)cc3c2C(C)C)cn2ncnc2c1C` (stereo not drawn) [Example 48] the IC50 [1] was 0.4 nM, the IC50 [2] was 0.55 nM and the IC50 [3] was 1850 nM.

Compound `CN[C@@H](C)C(=O)N1CCCC(c2ccc3[nH]c(-c4cc(C)nc(C)c4)c(C(C)C)c3c2)C1` (stereo partly drawn) [Example 219] has an IC50 [1] of 8.5 nM, an IC50 [2] of 9 nM and an IC50 [3] of 519 nM.

Work on `COc1cc(-c2[nH]c3ccc(C4CCCN(CC(=O)N(C)C)C4)cc3c2C(C)C)cn2ncnc12` (stereo not drawn) [Example 224] yielded an IC50 [1] of 16 nM, an IC50 [2] of 2 nM and an IC50 [3] of 1830 nM.

`Cc1cc(-c2[nH]c3ccc(C4CCC(C(=O)N5CCCCC5)CC4)cc3c2C(C)C)cn2ncnc12` (single isomer, unassigned) [Example 159] was tested, and the IC50 [1] was 1850 nM, the IC50 [2] was 1690 nM and the IC50 [3] was 28600 nM.

`COc1cc(-c2[nH]c3ccc(C4CN(C)CCO4)cc3c2C(C)C)cn2ncnc12` (stereo not drawn) [Example 301] was tested, and the IC50 [1] was 0.56 nM, the IC50 [2] was 7 nM and the IC50 [3] was 6140 nM.

`Cc1c(-c2[nH]c3ccc(C4CC5CN(C(C)C)CC5C4)cc3c2C(C)C)cn2cnnc2c1C` (stereo not drawn) [Example 560] was tested, and the IC50 [1] was 27 nM, the IC50 [2] was 1 nM and the IC50 [3] was 2330 nM.

For `COc1cc(-c2[nH]c3ccc(C4CCCN(CCS(C)(=O)=O)C4)cc3c2C(C)C)cn2ncnc12` (stereo not drawn) [Example 253], the IC50 [1] was 4.4 nM, the IC50 [2] was 5 nM and the IC50 [3] was 6220 nM.

`CNCC(=O)NC1CCC(c2ccc3[nH]c(-c4cc(C)nc(C)c4)c(C(C)C)c3c2)CC1` (single isomer, unassigned) [Example 129] showed an IC50 [1] of 3.9 nM, an IC50 [2] of 0.3 nM and an IC50 [3] of 544 nM.

`COc1cc(-c2[nH]c3ccc(C4CN(C)C4)cc3c2C(C)C)cn2ncnc12` [Example 273] showed an IC50 [1] of 97 nM, an IC50 [2] of 28 nM and an IC50 [3] of 5250 nM.

Compound `COc1cc(-c2[nH]c3ccc(C4CCC(NC5CC5)CC4)cc3c2C(C)C)cn2ncnc12` (stereo not drawn) [Example 10] has an IC50 [1] of 0.47 nM, an IC50 [2] of 0.17 nM and an IC50 [3] of 1260 nM.

`COc1cc(-c2[nH]c3ccc(C4CCC(N(C)CCC(F)(F)F)CC4)cc3c2C(C)C)cn2ncnc12` (stereo not drawn) [Example 75] showed an IC50 [1] of 2 nM, an IC50 [2] of 0.87 nM and an IC50 [3] of 4760 nM.
